Data on twelve compounds can be found in patent US7687515B2, “6-phenyl-1H-imidazo[4,5-c]pyridine-4-carbonitrile derivatives” (priority 2006, dated 2010).

By IC50 is commonly meant the concentration at which inhibition is half-maximal.

Where only a bound is given, the exact number is not on record here.

The target of the experiment is recombinant human Cathepsin S (Homo sapiens, UniProt P25774). In words: Cathepsin S assay: inhibition of recombinant human Cathepsin S (Z-Val-Val-Arg-AMC fluorescence). Format: biochemical. The procedure: Cathepsin S Assay Procedure
Sequence of recombinant human Cathepsin S (P25774 115-331): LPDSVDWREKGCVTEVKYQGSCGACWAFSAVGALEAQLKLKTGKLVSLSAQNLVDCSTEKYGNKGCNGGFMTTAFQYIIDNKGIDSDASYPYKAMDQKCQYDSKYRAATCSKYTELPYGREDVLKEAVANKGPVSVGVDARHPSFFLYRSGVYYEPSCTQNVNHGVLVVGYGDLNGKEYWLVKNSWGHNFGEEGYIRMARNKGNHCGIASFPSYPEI
25 μl of a 2 mg/l solution of activated recombinant human cathepsin S, in assay buffer, is then added to the well, yielding a final inhibitor concentration of 10 μM.
Enzyme activity is determined by measuring the fluorescence of the liberated aminomethylcoumarin at […] using 390 nm excitation, at 20 minutes. Percentage enzyme activity is calculated by comparison of this activity to that of a solution containing no inhibitor.
Turning to `CCOc1ccc(-c2cc3[nH]c(CN4CNC(=O)C4)nc3c(C#N)n2)cc1C(F)(F)F` [Example 13d, 6-(4-Ethoxy-3-trifluoromethyl-phenyl)-2-(4-oxo-imidazolidin-1-ylmethyl)-1H-imidazo[4,5-c]pyridine-4-carbonitrile], the half-inhibitory concentration (IC50) was under 100 nM.

In the case of `CCOc1ccc(-c2cc3c(ncn3CCN3CCCCC3)c(C#N)n2)cc1C(F)(F)F` [Example 9d, 6-(4-Ethoxy-3-trifluoromethyl-phenyl)-1-(2-piperidin-1-yl-ethyl)-1H-imidazo[4,5-c]-pyridine-4-carbonitrile], the 50% inhibitory concentration (IC50) was under 100 nM.

Consider `CCOc1ccc(-c2cc3[nH]c(CNCCO)nc3c(C#N)n2)cc1C(F)(F)F` [Example 11h, 6-(4-Ethoxy-3-trifluoromethyl-phenyl)-2-[(2-hydroxy-ethylamino)-methyl]-1H-imidazo[4,5-c]pyridine-4-carbonitrile], for which the 50% inhibitory concentration (IC50) is under 100 nM.

Consider `CCOc1ccc(-c2cc3[nH]c(CN4CCN(C)CC4)nc3c(C#N)n2)cc1C(F)(F)F` [Example 11a, 6-(4-Ethoxy-3-trifluoromethyl-phenyl)-2-(4-methyl-piperazin-1-ylmethyl)-1H-imidazo-[4,5-c]pyridine-4-carbonitrile], for which the IC50 is under 100 nM.

As to `CCOc1ccc(-c2cc3c(ncn3CCCN(C)C)c(C#N)n2)cc1C(F)(F)F` [Example 10f, 1-(3-Dimethylamino-propyl)-6-(4-ethoxy-3-trifluoromethyl-phenyl)-1H-imidazo-[4,5-c]pyridine-4-carbonitrile], the 50% inhibitory concentration (IC50) is under 100 nM.

Take `CCOc1ccc(-c2cc3[nH]cnc3c(C#N)n2)cc1C(F)(F)F` [Example 1, 6-(4-Ethoxy-3-trifluoromethyl-phenyl)-1H-imidazo[4.5-c]pyridine-4-carbonitrile]: the IC50 is under 100 nM.

On to `CCOc1ccc(-c2cc3c(ncn3CCN(C)C)c(C#N)n2)cc1C(F)(F)F` [Example 9f, 1-(2-Dimethylamino-ethyl)-6-(4-ethoxy-3-trifluoromethyl-phenyl)-1H-imidazo [4,5-c]pyridine-4-carbonitrile], for which the IC50 was under 100 nM.

`CCOc1ccc(-c2cc3c(ncn3CCN3CCOCC3)c(C#N)n2)cc1C(F)(F)F` [Example 9a, 6-(4-Ethoxy-3-trifluoromethyl-phenyl)-1-(2-morpholin-4-yl-ethyl)-1H-imidazo[4,5-c]pyridine-4-carbonitrile]: the concentration for half-maximal inhibition (IC50) was under 100 nM.

As for `CCOc1ccc(-c2cc3c(ncn3CC(=O)O)c(C#N)n2)cc1C(F)(F)F` [Example 3, [4-Cyano-6-(4-ethoxy-3-trifluoromethyl-phenyl)-imidazo[4,5-c]pyridin-1-yl]-acetic acid], the IC50 is under 100 nM.

As for `CCOc1ccc(-c2cc3[nH]c(CN4CCN(CCOC)CC4)nc3c(C#N)n2)cc1C(F)(F)F` [Example 13i, 6-(4-Ethoxy-3-trifluoromethyl-phenyl)-2-[4-(2-methoxy-ethyl)-piperazin-1-yl-methyl]-1H-imidazo[4,5-c]pyridine-4-carbonitrile], the IC50 was under 100 nM.

Take `CCOc1ccc(-c2cc3[nH]c(CN4CCNC(=O)C4)nc3c(C#N)n2)cc1C(F)(F)F` [Example 5d, 6-(4-Ethoxy-3-trifluoromethyl-phenyl)-2-(3-oxo-piperazine-1-ylmethyl)-1H-imidazo[4,5,c]pyridine-4-carbonitrile]: the IC50 was under 100 nM.

In the case of `CCOc1ccc(-c2cc3c(ncn3CCCN3CCOCC3)c(C#N)n2)cc1C(F)(F)F` [Example 10a, 6-(4-Ethoxy-3-trifluoromethyl-phenyl)-1-(3-morpholin-4-yl-propyl)-1H-imidazo[4,5-c]pyridine-4-carbonitrile], the IC50 is under 100 nM.
